Values joined by “and” are separate entries in the source; they are usually repeats but may differ in a detail not shown here. Equal entries are not always repeated. ± gives the expanded uncertainty stated by the source.
Legend:
[1] = Liquid, Closed cell (Static) method
[2] = molar heat capacity at constant pressure; conditions: 101.33 kPa, Liquid, Extra sensitive DSC

## CC1COC(=O)O1 (stereo unspecified) [4-methyl-1,3-dioxolan-2-one]
[1]; 278.19 K
  vapor or sublimation pressure: 0.00132 ± 0.00013 kPa
[1]; 278.37 K
  vapor or sublimation pressure: 0.00133 ± 0.00013 kPa
[1]; 278.39 K
  vapor or sublimation pressure: 0.00133 ± 0.00013 kPa
[1]; 283.31 K
  vapor or sublimation pressure: 0.00214 ± 0.00015 kPa
[1]; 283.32 K
  vapor or sublimation pressure: 0.00214 ± 0.00015 kPa
[1]; 288.19 K
  vapor or sublimation pressure: 0.00332 ± 0.00017 kPa
[1]; 288.2 K
  vapor or sublimation pressure: 0.00333 ± 0.00017 kPa
[1]; 288.22 K
  vapor or sublimation pressure: 0.00332 ± 0.00017 kPa
[1]; 293.12 K
  vapor or sublimation pressure: 0.00511 ± 0.00022 kPa
[1]; 293.14 K
  vapor or sublimation pressure: 0.00512 ± 0.00022 kPa
[1]; 293.15 K
  vapor or sublimation pressure: 0.00514 ± 0.00023 kPa and 0.00511 ± 0.00022 kPa
[1]; 298.1 K
  vapor or sublimation pressure: 0.00778 ± 0.00032 kPa
[1]; 298.11 K
  vapor or sublimation pressure: 0.00778 ± 0.00032 kPa
[1]; 298.12 K
  vapor or sublimation pressure: 0.00777 ± 0.00032 kPa
[1]; 303.01 K
  vapor or sublimation pressure: 0.01158 ± 0.00046 kPa and 0.01155 ± 0.00046 kPa
[1]; 303.03 K
  vapor or sublimation pressure: 0.01156 ± 0.00046 kPa
[1]; 307.94 K
  vapor or sublimation pressure: 0.01701 ± 0.00058 kPa and 0.01698 ± 0.00058 kPa
[1]; 307.95 K
  vapor or sublimation pressure: 0.01694 ± 0.00057 kPa and 0.01696 ± 0.00057 kPa
[1]; 312.97 K
  vapor or sublimation pressure: 0.0247 ± 0.00069 kPa and 0.02472 ± 0.00069 kPa
[1]; 312.98 K
  vapor or sublimation pressure: 0.02474 ± 0.00069 kPa
[1]; 312.99 K
  vapor or sublimation pressure: 0.02479 ± 0.0007 kPa
[1]; 317.91 K
  vapor or sublimation pressure: 0.03529 ± 0.00086 kPa
[1]; 317.92 K
  vapor or sublimation pressure: 0.0353 ± 0.00086 kPa and 0.03533 ± 0.00086 kPa and 0.03536 ± 0.00086 kPa
[1]; 322.9 K
  vapor or sublimation pressure: 0.04993 ± 0.0011 kPa
[1]; 322.92 K
  vapor or sublimation pressure: 0.04996 ± 0.0011 kPa and 0.05002 ± 0.0011 kPa and 0.05 ± 0.0011 kPa
[1]; 327.8 K
  vapor or sublimation pressure: 0.06936 ± 0.0014 kPa
[1]; 327.81 K
  vapor or sublimation pressure: 0.06935 ± 0.0014 kPa and 0.06932 ± 0.0014 kPa and 0.06938 ± 0.0014 kPa
[1]; 332.89 K
  vapor or sublimation pressure: 0.09634 ± 0.0019 kPa and 0.09635 ± 0.0019 kPa
[1]; 332.91 K
  vapor or sublimation pressure: 0.09643 ± 0.0019 kPa
[1]; 332.92 K
  vapor or sublimation pressure: 0.09645 ± 0.0019 kPa
[1]; 337.83 K
  vapor or sublimation pressure: 0.1311 ± 0.0023 kPa
[1]; 337.84 K
  vapor or sublimation pressure: 0.1311 ± 0.0023 kPa and 0.1312 ± 0.0023 kPa
[1]; 337.85 K
  vapor or sublimation pressure: 0.1312 ± 0.0023 kPa
[1]; 342.82 K
  vapor or sublimation pressure: 0.177 ± 0.0028 kPa
[1]; 342.83 K
  vapor or sublimation pressure: 0.1772 ± 0.0028 kPa
[1]; 342.84 K
  vapor or sublimation pressure: 0.1773 ± 0.0028 kPa and 0.1772 ± 0.0028 kPa
[1]; 347.69 K
  vapor or sublimation pressure: 0.2353 ± 0.0035 kPa
[1]; 347.7 K
  vapor or sublimation pressure: 0.2354 ± 0.0035 kPa
[1]; 352.55 K
  vapor or sublimation pressure: 0.3096 ± 0.0044 kPa
[1]; 352.58 K
  vapor or sublimation pressure: 0.3102 ± 0.0044 kPa
[1]; 352.59 K
  vapor or sublimation pressure: 0.3103 ± 0.0044 kPa
[1]; 357.59 K
  vapor or sublimation pressure: 0.4078 ± 0.0056 kPa
[1]; 357.6 K
  vapor or sublimation pressure: 0.4079 ± 0.0056 kPa
[1]; 362.51 K
  vapor or sublimation pressure: 0.529 ± 0.0071 kPa
[1]; 362.53 K
  vapor or sublimation pressure: 0.5293 ± 0.0071 kPa and 0.5294 ± 0.0071 kPa and 0.5295 ± 0.0071 kPa
[2]; 262.22 K
  molar heat capacity at constant pressure: 162.94 ± 6.3 J/K/mol
[2]; 265 K
  molar heat capacity at constant pressure: 163.34 ± 6.3 J/K/mol
[2]; 270 K
  molar heat capacity at constant pressure: 164.16 ± 6.4 J/K/mol
[2]; 275 K
  molar heat capacity at constant pressure: 164.98 ± 6.4 J/K/mol
[2]; 280 K
  molar heat capacity at constant pressure: 165.79 ± 6.4 J/K/mol
[2]; 285 K
  molar heat capacity at constant pressure: 166.61 ± 6.5 J/K/mol
[2]; 290 K
  molar heat capacity at constant pressure: 167.53 ± 6.5 J/K/mol
[2]; 295 K
  molar heat capacity at constant pressure: 168.45 ± 6.5 J/K/mol
[2]; 300 K
  molar heat capacity at constant pressure: 169.37 ± 6.6 J/K/mol
[2]; 305 K
  molar heat capacity at constant pressure: 170.29 ± 6.6 J/K/mol
[2]; 310 K
  molar heat capacity at constant pressure: 171.2 ± 6.6 J/K/mol
[2]; 315 K
  molar heat capacity at constant pressure: 172.23 ± 6.7 J/K/mol
[2]; 320 K
  molar heat capacity at constant pressure: 173.14 ± 6.7 J/K/mol
[2]; 325 K
  molar heat capacity at constant pressure: 174.17 ± 6.8 J/K/mol
[2]; 330 K
  molar heat capacity at constant pressure: 175.19 ± 6.8 J/K/mol
[2]; 335 K
  molar heat capacity at constant pressure: 176.11 ± 6.8 J/K/mol
[2]; 340 K
  molar heat capacity at constant pressure: 177.13 ± 6.9 J/K/mol
[2]; 345 K
  molar heat capacity at constant pressure: 178.15 ± 6.9 J/K/mol
[2]; 350 K
  molar heat capacity at constant pressure: 179.17 ± 6.9 J/K/mol
[2]; 355 K
  molar heat capacity at constant pressure: 180.09 ± 7 J/K/mol
[2]; 357.99 K
  molar heat capacity at constant pressure: 180.7 ± 7 J/K/mol
